# Results published in patent US20150038707A1, “PROCESS FOR MAKING CGRP RECEPTOR ANTAGONISTS” (Merck Sharp & Dohme Corp., priority 2012, published 2015).
# Several values for one entry are separate records, joined by “and”; a condition that tells them apart may be missing. Equal values may be shown once.
# What was measured:
# [1] = tested on: female Aedes aegypti (Thailand strain) mosquitoes; test: Contact irritancy assay on mosquitoes (Example 2); assay type: in vivo; settings: netting treated at 0.0025-2.5 nmol/cm^2; 10 minutes
# Procedure: (§1) Four compounds of formula (I) were tested for contact irritancy (i.e., movement away from the source after physical contact) at low doses on female Aedes aegypti (Thailand strain) mosquitoes. The contact irritant response was determined by use of the contact irritant assay disclosed by Grieco et al. in “A New Classification System for the Actions of IRS Chemicals Traditionally Used for Malaria Control,” Plos One, Issue 8 (2007) (available at www.plosone.org). The assay used was a cylindrical assembly that included a metal treatment end to which 10 mosquitoes were introduced and a clear receiving chamber. The treatment end included a netting strip (nylon organdy) that was treated with the insecticide of interest at the relevant dose. A butterfly valve separated the treatment end from the remainder of the assembly.
# (§2) Each composition was applied to the netting strip at a varied dose via a 1.5 ml acetone solution. Four (4) treatment concentrations were used—0.0025 nmol/cm^2, 0.025 nmol/cm^2, 0.25 nmol/cm^2 and 2.5 nmol/cm^2. Netting was allowed to dry for 15 minutes prior to placement in the cylinder. Control assays were performed with netting treated with acetone only.
# (§3) For each run, 10 mosquitoes were transferred into the treatment end of the assembly and, after 30 seconds, the butterfly valve was opened. The valve was closed after 10 minutes and the number of mosquitoes in the clear end (i.e., the number of escaped mosquitoes) was tested.
# [2] = tested on: female Aedes aegypti (Thailand strain) mosquitoes; test: Contact irritancy and spatial repellency screening (Example 4); assay type: in vivo; settings: Dosage 25 nmol/cm^2; mapped with 3000 other compounds
# Procedure: as §1
# The four compounds of formula I described in Example 2 were tested for spatial repellency (directed movement away from the chemical source without the insect making physical contact with the treated surface) at low doses on female Aedes aegypti (Thailand strain) mosquitoes. The spatial repellency response was determined by use of the spatial repellency assay disclosed by Grieco et al. in “A New Classification System for the Actions of IRS Chemicals Traditionally Used for Malaria Control” in Plos One, Issue 8 (2007) (available at www.plosone.org) which is incorporated herein by reference for all relevant and consistent purposes. The assay used was a cylindrical assembly that included a treatment chamber at one end and a control chamber at the other end. The treatment chamber included a netting strip (nylon organdy) that was treated with the insecticide of interest at the relevant dose. The treatment chamber and control chamber were connected by a clear cylinder and were separated from the clear cylinder by butterfly valves. Twenty (20) mosquitoes were introduced into the clear central chamber and the butterfly valves were opened after 30 seconds. After 10 minutes, the valves were closed and the number of mosquitoes in each chamber was counted.
# Dosage was 25 nmol/cm^2. Several known compounds were also mapped for comparison—alphacypermethrin, cypermethrin, propoxur, bendiocarb, permethrin, SS220, DDT, deet and chlorpyrifos.
# [3] = tested on: Ae. Aegypti, That strain (pyrethroid tolerant); test: Contact irritancy on pyrethroid tolerant mosquitoes (Example 5); assay type: in vivo
# Procedure: as §1, §2, §3
# The contact irritancy protocol of Example 2 was used to determine contact irritancy against mosquitoes (Ae. Aegypti) that had acquired metabolic resistance against pyrethroids. Alphacypermethrin and transfluthrin were also tested. Three mosquito strains were tested—Houston which is pyrethroid susceptible, That which is pyrethroid tolerant and Isla Mujer which is metabolically pyrethroid resistant.
# [4] = tested on: Ae. aegypti Houston strain (pyrethroid susceptible); test: Toxicity assay on treated netting (Example 7), Houston strain; assay type: in vivo
# How it was run: (§4)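 Twenty Ae. aegypti per chamber exposed to treated netting for 1 h, knockdown recorded, then held with 10% sucrose. Mortality scored at 24 h; acetone-treated netting as control, six replicates per treatment concentration.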
# [5] = tested on: Ae. aegypti Thai strain (pyrethroid tolerant); test: Toxicity assay on treated netting (Example 7), Thai strain; assay type: in vivo
# How it was run: as §4
# [6] = tested on: KDR Resisant An. Gambiae; test: Bottle toxicity assay (Example 8), knockdown resistant mosquitoes; assay type: in vivo, Anopheles gambiae
# How it was run: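 Bottles coated inside with pesticide in acetone, solvent evaporated by rotation; acetone-only bottle as control. Knockdown resistant or susceptible An. gambiae mosquitoes introduced and deaths recorded at 1 hour and 24 hours.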
# [7] = tested on: mosquitoes (Ae. aegypti); test: Compound residual life: contact irritancy (Example 10); assay type: in vivo; settings: for Number escaping (mean +/- SE), treated: 10 mosquitoes per run, 6 runs per net sample
# Procedure: as §1
# Contact irritancy tests (blind testing) were performed for several samples of compounds 1405 and 1406 at 0 weeks, 2 weeks, 4 weeks, 8 weeks and 12 weeks to determine the residual contact irritancy of the compounds on mosquitoes (Ae. aegypti). Between testing, the nets were hung in the lab and held at a temperature of 27-29° C. and 56-67% relative humidity. Each run was performed 6 times for each sample with 10 mosquitoes used in each run (60 mosquitoes total).
# [8] = Dose 0.025 nm/cm^2, Time 1 hour
# [9] = Dose 0.025 nm/cm^2, Time 24 hours
# [10] = Dose 0.0725 nm/cm^2, Time 1 hour
# [11] = Dose 0.0725 nm/cm^2, Time 24 hours
# [12] = Dose 0.25 nm/cm^2, Time 24 hours
# [13] = Dose 2.5 nm/cm^2, Time 24 hours
structure (smiles),measurement,setting,value
CC1(C)C(C=C(Cl)Cl)C1C(=O)OCc1ccc(F)c(C(F)(F)F)c1F (stereo not shown) [Compound 1406],contact irritancy (FIG. 1),[1],showed contact irritancy at relatively low doses
same,contact irritancy and spatial repellency relative to screened compounds (FIG. 3),[2],superior contact irritancy and spatial repellency relative to most screened compounds
same,"contact irritancy, tolerant strain (FIG. 4)",[3],contact irritants for tolerant strains
same,Houston (% dead (SE)),[4]; [8],100%
same,Houston (% dead (SE)),[4]; [9],100%
same,Houston (% dead (SE)),[4]; [10],100%
same,Houston (% dead (SE)),[4]; [11],100%
same,Houston (% dead (SE)),"[4]; Dose 0.125 nm/cm^2, Time 1 hour",100%
same,Houston (% dead (SE)),"[4]; Dose 0.125 nm/cm^2, Time 24 hours",100%
same,Houston (% dead (SE)),"[4]; Dose 0.25 nm/cm^2, Time 1 hour",100%
same,Houston (% dead (SE)),[4]; [12],100%
same,Houston (% dead (SE)),"[4]; Dose 2.5 nm/cm^2, Time 1 hour",100%
same,Houston (% dead (SE)),[4]; [13],100%
same,Thai (% dead (SE)),[5]; [8],100%
same,Thai (% dead (SE)),[5]; [9],98.3%
same,Thai (% dead (SE)),[5]; [10],100%
same,Thai (% dead (SE)),[5]; [11],100%
same,Thai (% dead (SE)),"[5]; Dose 0.25 nm/cm^2, Time 1 hour",96.6%
same,Thai (% dead (SE)),[5]; [12],100%
same,Thai (% dead (SE)),"[5]; Dose 2.5 nm/cm^2, Time 1 hour",100%
same,Thai (% dead (SE)),[5]; [13],100%
same,KDR Resisant An. Gambiae (% dead (SE)),"[6]; Dose 0.025 μg/bottle, Strain Tested F122, Time 1 hour",100%
same,KDR Resisant An. Gambiae (% dead (SE)),"[6]; Dose 0.025 μg/bottle, Strain Tested F122, Time 24 hours",100%
same,KDR Resisant An. Gambiae (% dead (SE)),"[6]; Dose 0.025 μg/bottle, Strain Tested F123, Time 1 hour",100%
same,KDR Resisant An. Gambiae (% dead (SE)),"[6]; Dose 0.025 μg/bottle, Strain Tested F123, Time 24 hours",100%
same,KDR Resisant An. Gambiae (% dead (SE)),"[6]; Dose 0.25 μg/bottle, Strain Tested F122, Time 1 hour",100%
same,KDR Resisant An. Gambiae (% dead (SE)),"[6]; Dose 0.25 μg/bottle, Strain Tested F122, Time 24 hours",100%
same,KDR Resisant An. Gambiae (% dead (SE)),"[6]; Dose 0.25 μg/bottle, Strain Tested F123, Time 1 hour",100%
same,KDR Resisant An. Gambiae (% dead (SE)),"[6]; Dose 0.25 μg/bottle, Strain Tested F123, Time 24 hours",100%
same,KDR Resisant An. Gambiae (% dead (SE)),"[6]; Dose 2.5 μg/bottle, Strain Tested F122, Time 1 hour",100%
same,KDR Resisant An. Gambiae (% dead (SE)),"[6]; Dose 2.5 μg/bottle, Strain Tested F122, Time 24 hours",100%
same,KDR Resisant An. Gambiae (% dead (SE)),"[6]; Dose 2.5 μg/bottle, Strain Tested F123, Time 1 hour",100%
same,KDR Resisant An. Gambiae (% dead (SE)),"[6]; Dose 2.5 μg/bottle, Strain Tested F123, Time 24 hours",100%
same,effectiveness against knockdown resistant strains,[6]; summary of Table 3,effective against knockdown resistant strains
same,residual contact irritant activity (in words),"[7]; 12 week test period, nets held at 27-29° C.",the most residual with the highest level of activity out to 12 weeks
same,Percent escaping (mean ± SE),[7]; Time 0 week,80 ± 2% and 87 ± 4% and 87 ± 7% and 87 ± 10%
same,"Number escaping (mean +/- SE), treated",[7]; Time 0 week,3.8 ± 0.5 and 3.2 ± 0.5 and 3.2 ± 1.2 and 4.0 ± 1.0
same,Percent escaping (mean ± SE),[7]; Time 2 week,57 ± 4% and 63 ± 5% and 58 ± 7% and 62 ± 8%
same,"Number escaping (mean +/- SE), treated",[7]; Time 2 week,2.5 ± 0.8 and 2.7 ± 0.3 and 2.2 ± 0.2
same,Percent escaping (mean ± SE),[7]; Time 4 week,50 ± 10% and 47 ± 4% and 45 ± 4% and 35 ± 8%
same,"Number escaping (mean +/- SE), treated",[7]; Time 4 week,2.0 ± 0.4 and 2.3 ± 0.5 and 2.5 ± 0.4 and 2.5 ± 0.8
same,Percent escaping (mean ± SE),[7]; Time 8 week,40 ± 10% and 37 ± 2% and 27 ± 7% and 28 ± 9%
same,Percent escaping (mean ± SE),[7]; Time 12 week,37 ± 4% and 31 ± 4% and 22 ± 6% and 19 ± 5%
